From the METLIN SMRT retention time set (Domingo-Almenara et al. 2019)

Experiment: gradient 5% acetonitrile 3 min, to 50% in 2 min, to 85% in 15 min, held 3 min, 100 µL/min
Conditions: column: Zorbax Extend-C18 2.1 x 50 mm; eluents: water / acetonitrile, 0.1% formic acid
In short: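 In both positive and negative ionization mode, a quadrupole time-of-flight mass spectrometer coupled to HPLC analyzed pure standards run in mixtures of ~100 molecules. The Zorbax Extend-C18 column (2.1 × 50 mm, 1.8 μm) was operated at 100 μL/min with water and acetonitrile, each containing 0.1% formic acid. The dead volume was 40 μL and the dwell volume 900 μL. Retention time came from adduct peaks that were computationally picked and individually inspected by hand.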

Compound	RP-LC retention time
Cc1ccnc(N2CCCC(C(=O)N3CCC(C(N)=O)(N4CCCCC4)CC3)C2)n1 (stereo not given)	542 s
CC(NC(=O)c1ccco1)c1nc(-c2ccc3c(c2)ncn3C2CCCC2)no1 (stereo not given)	674 s
CC1(C)CC(=O)c2cn(-c3ccccc3)c(=O)c(C(=O)N3CCC(N4CCCCC4)CC3)c2C1	622 s
O=C(NCc1cccc(C(F)(F)F)c1)C1CCCN(c2cnc3nccnc3c2)C1 (stereo not given)	754 s
CCn1cc(CN2CCC(N3CC4(CCCCC4)C3c3ccncc3)CC2)cn1 (stereo not given)	565 s
COc1ccc(-c2nc(-c3cn(-c4ccc(F)cc4)nn3)no2)c(OC)c1	974 s
CCc1noc(NC(C)=O)c1-c1ccc(C)c(S(=O)(=O)Nc2ccc(OC)c(Cl)c2)c1	1300 s
CCS(=O)(=O)N(C1CC1)C1CCOC2(CCN(C(=O)c3sc(C)nc3C)CC2)C1 (stereo not given)	714 s
CN(CC1CCOC1)C(=O)c1ccc(F)c(F)c1 (stereo not given)	683 s
CN(C)C(=O)c1ccc2c(c1)CCN2C(=O)C1CCCC1	720 s
CCC(=O)N1CCC(c2noc(CO)n2)C1 (stereo not given)	545 s
COc1ccc(-c2nnc3sc(-c4cccnc4)nn23)cc1OC	695 s
Cc1cc(N2CCCC2)n2nc(-c3ccc(Cl)cc3)c(C)c2n1	799 s
O=[N+]([O-])c1c(NCCCO)cc(Nc2ccc(F)cc2)c2nonc12	676 s
Cc1ccc(CN2CCC(N3CC4(CCCCC4)C3c3ccncc3)CC2)o1 (stereo not given)	591 s
O=c1onc2cnc3ccccc3n12	822 s
O=C(Cc1ccsc1)NCCC1CCN(C(=O)Nc2cc(F)ccc2F)CC1	915 s
COc1ccc(N2CCN(C(=O)CN3C(=O)NC(c4ccc(Cl)cc4)C4=C3COC4=O)CC2)cc1 (stereo not given)	752 s
CC(C)CCNC(=O)N1CCN(Cc2nc3ccc(Cl)cc3o2)CC1	746 s

Compound	RP-LC retention time
O=C(NCCCN1CCOCC1)c1ccc(-c2cnc(NC3CCCCC3)nc2)cc1	655 s
Cc1ccc(CNC(=O)C2(C)CCCN(C(=O)NCc3ccc(F)cc3)C2)cc1 (stereo not given)	864 s
CCn1nc(C)cc1C(=O)N1CCNC(=O)C1(C)C	568 s
Clc1cccc(-c2noc3ncnc(N4CCN(c5ccccn5)CC4)c23)c1	716 s
Cc1cc(NC(=O)Cn2cnc3nc4c(cc3c2=O)CCCC4)ccc1Br	851 s
CCc1noc2nc(CCC(=O)NCCCN3CCCC(C)C3)nc(N3CCCCC3)c12 (stereo not given)	673 s
COC(=O)c1ncn2c1C(=O)N(Cc1cccc(Br)c1)C(C)(C(=O)NC1CCCC1)C2 (stereo not given)	764 s
COc1ccc(-c2nnc(Cc3nc(-c4cccc(F)c4)no3)o2)cc1OC	911 s
Cc1nnc(-c2nnc(NCCC(C)C)c3ccccc23)o1	710 s
COCCNc1nc(Nc2ccc(C)c(C)c2)c2nccnc2n1	597 s
Cc1ncc2c(n1)C[C@@H]1CC[C@H]2N1S(=O)(=O)c1ccc(F)cc1	720 s
COC(=O)c1cc(S(=O)(=O)N2CCCC2C(=O)Nc2ccccc2)cn1C (stereo not given)	818 s
Cc1ccc(S(=O)(=O)N2CCC3(CC2)CN(C)CC3c2noc(C3CC3)n2)cc1 (stereo not given)	638 s
COCCC1CCN(C(=O)c2n[nH]c3ccccc23)CC1	709 s
COCCCn1c(C)cc(C(=O)NCC2Cn3cccc3C(=O)N2C)c1C (stereo not given)	666 s
CC(C)OCCCNC(=O)c1c2c(cn(-c3ccccc3)c1=O)C(=O)CC(C)(C)C2	878 s
Cc1cc(-c2nnc(C3CCC3)o2)c(C)n1CC(=O)NCc1cc(F)cc(F)c1	864 s
COC(=O)c1ccc(Cl)cc1NC(=O)N1CCCn2nc(-c3cccs3)cc2C1	1120 s
COc1ccc(NC(=O)N2C[C@H]3C[C@H](C2)[C@H]2CCCC(=O)N2C3)cc1	620 s

Next, values leading:

RP-LC retention time	Compound
1010 s	Cc1c(-c2noc(-c3ccc4cc[nH]c4c3)n2)nnn1Cc1ccccc1
834 s	CC(C)CNC(=O)CCc1nc2ccccc2n(CC(=O)NCCCc2ccccc2)c1=O
837 s	O=C(Nc1cccn2c(C3CCC3)nnc12)C1COc2ccccc2O1 (stereo not given)
652 s	O=C(NCCCN1CCOCC1)c1cc2occc2c(Nc2ccc(F)cc2)n1
727 s	CC(CCc1ccccc1)NC(=O)C1CN(C(=O)c2cccs2)C1 (stereo not given)
736 s	O=C(NCCc1c[nH]c2ccccc12)C1CC(=O)N(Cc2ccccc2)C1 (stereo not given)
578 s	Cc1cccc(Nc2ccc(N3CCN(C(=O)c4ccc(Br)o4)CC3)nn2)n1
1020 s	CCn1cc(-c2nc(C)c(C(=O)Nc3ccc(C(=O)OC)cc3)s2)c2cccnc21
774 s	O=C(Cn1cccc1-c1nnc(-c2ccccc2)o1)N1CCN(C(=O)c2ccco2)CC1
1090 s	Cc1ccccc1NC(=O)c1cc(C(C)C)n2nccc2n1
698 s	O=S(=O)(c1cccnc1)N1CCCn2nc(-c3cccc(F)c3)cc2C1
634 s	Cc1ccc(CN2CCC(CNC(=O)CSc3nc4ccccc4n(C)c3=O)C2)cc1 (stereo not given)
696 s	O=C(Cn1ccc2sccc2c1=O)NCc1ccccc1
778 s	Cc1cc(NC(=O)C(C)C)nn1Cc1ccccc1
605 s	O=C(Cc1c(F)cccc1Cl)NCC(=O)N1CCN(c2ccccn2)CC1
592 s	CC(C)n1cnc2c(-c3ccccc3)cn(CC(=O)NCc3ccco3)c2c1=O
716 s	O=C(Nc1c(-c2ccc(F)cc2)nc2ccccn12)c1ccc(Br)cc1
805 s	O=C(c1cccs1)N1CCCC(c2nnc(-c3ccccc3)o2)C1 (stereo not given)
632 s	CC(C)(C)NC(=O)CCc1ccc2nc(-c3ccccc3)[nH]c2c1
998 s	COc1ccccc1NC(=O)Cn1c(C)cc(-c2nnc(-c3ccc(F)cc3)o2)c1C
935 s	O=C(CN1C(=O)CCc2cc(S(=O)(=O)N3CCCCC3)ccc21)NC1CCCc2ccccc21 (stereo not given)
663 s	O=C(CCc1ccccc1)Nc1c(-c2ccccc2)nc2ccccn12
537 s	O[C@@H]1C[C@@H](c2nnc3n2CCN(Cc2ccccn2)C3)N(Cc2ccccc2)C1
684 s	COc1cccc(NC(=O)NCC(c2cccnc2)c2cn(C)c3ccccc23)c1 (stereo not given)
895 s	Cc1ccc(Cn2nc3ccc(S(=O)(=O)N4CCCC4)cn3c2=O)cc1
715 s	CCOC(=O)c1nc(NCCCN2CCN(c3cc(C)ccc3C)CC2)c2ccccc2n1

RP-LC retention time	Compound
929 s	Cc1ccc(NC(=O)CCCN2C(=O)COc3ccc(C)cc32)c(C)c1
824 s	O=c1n(CCOc2ccc(F)cc2)nc2c(S(=O)(=O)N3CCCC3)cccn12
730 s	CC(Cc1ccccc1)(NC(=O)CN)c1ccccc1 (stereo not given)
1140 s	Cc1ccccc1-c1noc(Cc2nnc(-c3cccc(Cl)c3)o2)n1
714 s	CCC(=O)Nc1ccc(CCc2nc3ccc(C(=O)NC(C)CCc4ccccc4)cc3[nH]2)cc1 (stereo not given)
969 s	COc1ccc(-c2ncc3c(n2)CCN(C(=O)c2ccc(Cl)cc2)C3)cc1
1010 s	COc1ccccc1-c1nc2nccc(-c3cc4ccccc4o3)n2n1
587 s	CC(C(=O)N1CCN(c2ccccn2)CC1)N1Cc2ccccc2C1=O (stereo not given)
880 s	Cc1ccc(C)c(NC(=O)Cn2c(=O)nc(N3CCC(C)CC3)c3ccccc32)c1
964 s	Cc1ccc2[nH]cc(CCNC(=O)c3c(-c4ccccn4)noc3C)c2c1
746 s	O=C(c1cc2c(s1)CCCC2)N1CCN(c2nnc3ccccn23)CC1
809 s	CCc1cccc(C)c1NC(=O)Cn1nc(N2CCOCC2)c2ccccc2c1=O
806 s	CNC(=O)CSc1nc(-c2ccccc2)c(NC(=O)COc2ccccc2F)s1
969 s	O=c1c2sccc2n(Cc2nc(-c3ccccc3)no2)c(=O)n1-c1ccc(F)cc1
807 s	O=C(c1cccc(F)c1)N1CCC(n2nc(-c3ccsc3)ccc2=O)CC1
1070 s	COC(=O)c1cc(OC)c(OC)cc1NC(=O)c1ccc(CSc2ccccc2)o1
833 s	CCc1ccc(-c2csc(NC3OC(=O)c4ccccc43)n2)cc1 (stereo not given)
542 s	COC(=O)N1CCN(CCNC(=O)c2cccc3ccccc23)CC1
932 s	Cc1cccc(CNC(=O)CN2C(=O)C3CCCCN3c3ccc(S(=O)(=O)N(C)C)cc32)c1 (stereo not given)
575 s	CCN(CC)S(=O)(=O)c1ccc(C)c(NC(=O)c2ccccc2C(=O)O)c1
636 s	CCc1ccc2nc(Nc3ncc4c(n3)CC(c3ccccc3)CC4=O)nc(C)c2c1 (stereo not given)
1070 s	O=C(Nc1ccc(-c2nc(-c3ccccc3)no2)cc1)C1CC(=O)N(C2CCCCC2)C1 (stereo not given)
690 s	O=C(CCc1ccccc1)Nc1cnc(-c2cccnc2)nc1
763 s	CCOc1cccc2sc(N(Cc3ccccn3)C(=O)c3nn(C)cc3C)nc12
640 s	O=C(c1cccnc1)N1CCN(C(=O)c2nnn3c2COC(c2ccccc2)C3)CC1 (stereo not given)
1130 s	CCn1c(=O)n(CC(=O)NCCC2=CCCCC2)c(=O)c2cnc(-c3ccccc3)nc21
